Source: patent publication US10604487B2, “Pyridinol derivative or pharmaceutically acceptable salt thereof, and pharmaceutical composition containing same as active ingredient” (Research Cooperation Foundation of Yeungnam University, priority 2016, dated 2020)

Key:
[1] = system: TNF-α-induced adhesion of monocytes to intestinal epithelial cells; test: Inhibitory activity against TNF-α-induced adhesion of monocytes (U937) to intestinal epithelial cells (HT-29); format: cell-based, human; conditions: Homo sapiens, 1 μM test drug; HT-29/U937 adhesion, 10 ng/mL TNF-α; read-out: Inhibitory activity (%)
Summary of the method: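 HT-29 monolayers pretreated 1 h with compound in 1% FBS medium, then exposed 3 h at 37 °C to BCECF-loaded U937 cells plus 10 ng/mL TNF-α. Non-adherent cells washed off; bound cells quantified by fluorescence after Triton X-100 lysis.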

[2] = Cytotoxicity test (MTT), HT-29; format: cell-based; conditions: human, HT-29, 48 h
Summary of the method: (§1)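 Cells seeded at 1×10⁵ cells/cm² and exposed to graded compound concentrations for 48 h at 37 °C in RPMI 1640 with 1% FBS. MTT (5 mg/mL) added for 4 h; formazan dissolved in DMSO and absorbance read at 540 nm.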

[3] = Cytotoxicity test (MTT), U937; format: cell-based; conditions: human, U937, 48 h
Summary of the method: as §1

[4] = system: TNBS-induced colitis; test: In vivo efficacy of oral administration in TNBS-induced inflammatory bowel disease model; parameters: species or system Sprague Dawley rats; conditions: rat, oral, 1 mg/kg, 5 days
Procedure: 7 to 8-week-old Sprague Dawley rats were purchased from Orient Bio Korea, and after stabilization with typical solid feed for 3 days, were used as animals for the experiment. The animals were freely supplied with feed and water during the experiment, and a cage was maintained at a temperature of 25±1° C. and a relative humidity of 50±10%. Lighting was adjusted to a 12-hour light-dark cycle using an automatic lightening system. In regard to experimental groups, there were 5 groups each consisting of 6 rats having an average weight of 180±10 g (a control group, a group administered TNBS only, a group administered TNBS+300 mg/kg of sulfasalazine, a group administered TNBS+10 mg/kg of GLPG, and a group administered TNBS+1 mg/kg of test drug), which were divided according to a randomized block design.
After rats that had been fasting for 24 hours were anesthetized with diethyl ether, a 1 mL syringe connected with a polyethylene catheter was used to slowly inject 0.8 mL of 5% TNBS diluted with 50v/v % ethanol into the lumen of a colon, and then the rats turned upside down and kept upright for 60 seconds to prevent the leakage of 5% TNBS from the anus. In the control group, only a vehicle [50 v/v % ethanol] was injected in the same manner as in the other groups (Thapa et al., 2008).
To examine a drug effect, for 5 days from the day following the TNBS treatment, a drug was administered at a predetermined time every day.
A change in the body weights of the rats was observed using a digital mass meter from the fasting stage to the end of the TNBS administration and drug administration processes.
The colon of each rat was extracted and tissue 5 to 6 cm from the anus was cut into 1-cm pieces, and then the weight of the tissue was measured.

Compound: Cc1nc(NC(=S)NC(=O)c2ccccc2)c(C)c(C)c1O [Compound 18-13, N-((5-Hydroxy-3,4,6-trimethylpyridin-2-yl)carbamothioyl)benzamide]
- inhibition at 1 µM [1]: ≥ 50%
- viability at 48 h, 0.01 µM ([2]; HT-29 cells (colorectal cancer cell line), 0.01 μM, read-out: Cell viability (% of control)): 78.8 ± 3.3%
- viability at 48 h, 0.1 µM ([2]; HT-29 cells (colorectal cancer cell line), 0.1 μM, read-out: Cell viability (% of control)): 75.4 ± 1.3%
- viability at 48 h, 1 µM ([2]; HT-29 cells (colorectal cancer cell line), 1 μM, read-out: Cell viability (% of control)): 75.4 ± 4.1%
- viability at 48 h, 10 µM ([2]; HT-29 cells (colorectal cancer cell line), 10 μM, read-out: Cell viability (% of control)): 57.9 ± 5.8%
- viability at 48 h, 100 µM ([2]; HT-29 cells (colorectal cancer cell line), 100 μM, read-out: Cell viability (% of control)): 36.4 ± 6.1%
- IC50 at 48 h ([2]; HT-29 cells, read-out: IC50 (μM), cytotoxicity): 19.1 µM
- viability at 48 h, 0.01 µM ([3]; U937 cells (monocytic blood cancer-derived cell line), 0.01 μM, read-out: Cell viability (% of control)): 99.9 ± 1.3%
- viability at 48 h, 0.1 µM ([3]; U937 cells (monocytic blood cancer-derived cell line), 0.1 μM, read-out: Cell viability (% of control)): 96.8 ± 1.8%
- viability at 48 h, 1 µM ([3]; U937 cells (monocytic blood cancer-derived cell line), 1 μM, read-out: Cell viability (% of control)): 91.7 ± 3.6%
- viability at 48 h, 10 µM ([3]; U937 cells (monocytic blood cancer-derived cell line), 10 μM, read-out: Cell viability (% of control)): 79 ± 0.8%
- viability at 48 h, 100 µM ([3]; U937 cells (monocytic blood cancer-derived cell line), 100 μM, read-out: Cell viability (% of control)): 60.6 ± 0.5%
- IC50 at 48 h ([3]; U937 cells): > 100 µM
- Body weight recovery rate (%) [4]: 93.8%
- Bowel weight recovery rate (%) [4]: 94.9%
